Reference: US12227520B2 (priority 2019, dated 2025)
Read-outs that look alike come from different tables or passages of the source.

Key:
pLai RLuc reporter virus = test: microbe, parasite or virus in culture; assay type: cell-based, HIV; details: Human immunodeficiency virus 1, 72 h
Procedure: To quantify the amount of protein binding to human serum, compounds were serially diluted (1:3) in DMSO and acoustically transferred onto 384-well assay plates via a Labcyte ECHO robot. Each plate contained up to 8 test compounds, including negative and positive controls, (DMSO, 5 μM AZT respectively). Assay plates were prepared in duplicate, and tested in either CCM (cell culture media) or HS/CCM (human serum/cell culture media). MT-4 cells were first pre-infected with pLai RLuc reporter virus for 2 h at 37° C., then further diluted in either CCM (RPMI media, 10% FBS, 1% P/S) or HS/CCM (RPMI media, 10% FBS, 50% HS, 1% P/S), and subsequently added to each plate using a Biotek Micro Flow dispenser. After a 72-h incubation in a humidified and temperature controlled incubator (37° C.), Renilla Glo (Promega) was added to all assay plates and chemiluminescence read using an Envision plate-reader. […] To determine the amount of protein binding, EC50 fold shifts (or EC50 shifts) were calculated by dividing EC50 (HS/CCM)/EC50 (CCM).

[1] = Cytotoxicity assay in MT-4 cells; assay type: cell-based, human; details: human, uninfected MT-4 cells, 5 days incubation; read-out: CC50
Summary of the method: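 Infected MT-4 cells (HIV-1 IIIB, fresh 1:250 dilution of concentrated stock) or mock-infected cells exposed to compounds for 5 days at 37 °C. Viability by CellTiter-Glo luminescence; 5 μM AZT positive control, no-drug negative control. Uninfected cells used for cytotoxicity, with 10 μM puromycin as base-level cytotoxicity control.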

HIV-1 (IIIB) = test: Antiviral assay in MT-4 cells (HIV MT-4 antiviral assay); assay type: cell-based; details: Human immunodeficiency virus 1, IIIB, MT4, 120 h, HIV-1 (IIIB) in MT-4 cells, 5 days incubation; read-out: EC50
Summary of the method: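 MT-4 cells infected with HIV-1 IIIB (1:250 diluted stock) and exposed to 1:3 serially diluted compound in RPMI with 10% FBS. Viability read by CellTiter-Glo luminescence after 5 days at 37° C; mock-infected cells and 5 μM AZT as controls.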

[2] = read-out: Antiviral Serum Shift RLuc 50% HS, HS/CCM (RPMI media, 10% FBS, 50% HS, 1% P/S), 72-h incubation
[3] = read-out: Antiviral Serum Shift RLuc CCM, CCM (RPMI media, 10% FBS, 1% P/S), 72-h incubation

## O=C(NCc1c(F)cc(F)cc1F)c1cn2c(c(O)c1=O)C(=O)N1CCC=C(F)[C@H]2C1 (single isomer, unassigned) [Example 75-2]
pLai RLuc reporter virus; [2]
  EC50: 2.19 nM
pLai RLuc reporter virus; [3]
  EC50: 0.473 nM
[1]
  CC50 at 5 days: 26000 nM
HIV-1 (IIIB)
  EC50: 2.09 nM

## O=C(NCc1c(F)cc(F)cc1F)c1cn2c(c(O)c1=O)C(=O)N1C[C@@H](O)CC[C@H]2C1 (single isomer, unassigned) [Example 79-1]
pLai RLuc reporter virus; [2]
  EC50: 23.5 nM
pLai RLuc reporter virus; [3]
  EC50: 19.5 nM
[1]
  CC50 at 5 days: > 50000 nM
HIV-1 (IIIB)
  EC50: 58.5 nM

## O=C(NCc1c(F)cc(F)cc1F)c1cn2c(c(O)c1=O)C(=O)N1C[C@H](O)CC[C@H]2C1 (single isomer, unassigned) [Example 79-2]
pLai RLuc reporter virus; [2]
  EC50: 6.61 nM
pLai RLuc reporter virus; [3]
  EC50: 5.33 nM
[1]
  CC50 at 5 days: > 50000 nM
HIV-1 (IIIB)
  EC50: 17.7 nM

## O=C(NCc1c(F)cc(F)cc1F)c1cn2c(c(O)c1=O)C(=O)N1CCc3cc(F)c(F)cc3[C@H]2C1 (single isomer, unassigned) [Example 110-1]
pLai RLuc reporter virus; [2]
  EC50: 2.75 nM
pLai RLuc reporter virus; [3]
  EC50: 0.323 nM
[1]
  CC50 at 5 days: 9870 nM
HIV-1 (IIIB)
  EC50: 2 nM

## O=C(NCc1c(F)cc(F)cc1F)c1cn2c(c(O)c1=O)C(=O)N1CCc3cc(F)c(F)cc3[C@@H]2C1 (single isomer, unassigned) [Example 110-2]
pLai RLuc reporter virus; [2]
  EC50: 53.7 nM
pLai RLuc reporter virus; [3]
  EC50: 4.81 nM
[1]
  CC50 at 5 days: 6330 nM
HIV-1 (IIIB)
  EC50: 30.5 nM

## O=C(NCc1ccc(F)cc1F)c1cn2c(c(O)c1=O)C(=O)N1CCc3cc(F)c(F)cc3[C@H]2C1 (single isomer, unassigned) [Example 111-1]
pLai RLuc reporter virus; [2]
  EC50: 7.12 nM
pLai RLuc reporter virus; [3]
  EC50: 0.447 nM
[1]
  CC50 at 5 days: 5910 nM
HIV-1 (IIIB)
  EC50: 2.01 nM

## C[C@]12CC(F)CCN(C1)C(=O)c1c(O)c(=O)c(C(=O)NCc3c(F)cc(F)cc3F)cn12 (single isomer, unassigned) [Example 112]
pLai RLuc reporter virus; [2]
  EC50: 27.8 nM
pLai RLuc reporter virus; [3]
  EC50: 0.182 nM
[1]
  CC50 at 5 days: 8030 nM
HIV-1 (IIIB)
  EC50: 0.712 nM

## O=C(NCc1ccc(F)c(Cl)c1F)c1cn2c(c(O)c1=O)C(=O)N1CCCC(F)(F)[C@H]2C1 (single isomer, unassigned) [Example 117-1]
pLai RLuc reporter virus; [2]
  EC50: 7.17 nM
pLai RLuc reporter virus; [3]
  EC50: 0.33 nM
[1]
  CC50 at 5 days: 13300 nM
HIV-1 (IIIB)
  EC50: 1.93 nM

## O=C(NCc1ccc(F)c(Cl)c1F)c1cn2c(c(O)c1=O)C(=O)N1CCCC(F)(F)[C@@H]2C1 (single isomer, unassigned) [Example 117-2]
pLai RLuc reporter virus; [2]
  EC50: 1270 nM
pLai RLuc reporter virus; [3]
  EC50: 0.603 nM
[1]
  CC50 at 5 days: 15700 nM
HIV-1 (IIIB)
  EC50: 3.53 nM

## C[C@@]12CN(CCc3cc(F)c(F)cc31)C(=O)c1c(O)c(=O)c(C(=O)NCc3c(F)cc(F)cc3F)cn12 (single isomer, unassigned) [Example 120-1]
pLai RLuc reporter virus; [2]
  EC50: 4.96 nM
pLai RLuc reporter virus; [3]
  EC50: 0.371 nM
[1]
  CC50 at 5 days: 8990 nM
HIV-1 (IIIB)
  EC50: 3.54 nM

## C[C@]12CN(CCc3cc(F)c(F)cc31)C(=O)c1c(O)c(=O)c(C(=O)NCc3c(F)cc(F)cc3F)cn12 (single isomer, unassigned) [Example 120-2]
pLai RLuc reporter virus; [2]
  EC50: 239 nM
pLai RLuc reporter virus; [3]
  EC50: 14 nM
[1]
  CC50 at 5 days: 11100 nM
HIV-1 (IIIB)
  EC50: > 59.4 nM

## O=C(NCc1c(F)cc(F)cc1F)c1cn2c(c(O)c1=O)C(=O)N1CCc3ccc(Br)cc3[C@H]2C1 (single isomer, unassigned) [Example 122-1]
pLai RLuc reporter virus; [2]
  EC50: 4.78 nM
pLai RLuc reporter virus; [3]
  EC50: 0.534 nM
[1]
  CC50 at 5 days: 4740 nM
HIV-1 (IIIB)
  EC50: 2.57 nM

## O=C(NCc1c(F)cc(F)cc1F)c1cn2c(c(O)c1=O)C(=O)N1CCc3ccc(Br)cc3[C@@H]2C1 (single isomer, unassigned) [Example 122-2]
pLai RLuc reporter virus; [2]
  EC50: 298 nM
pLai RLuc reporter virus; [3]
  EC50: 3.77 nM
[1]
  CC50 at 5 days: 4770 nM
HIV-1 (IIIB)
  EC50: 14.4 nM

## O=C(NCc1ccc(F)c(Cl)c1F)c1cn2c(c(O)c1=O)C(=O)N1CCC=C(F)[C@H]2C1 (single isomer, unassigned) [Example 123-1]
pLai RLuc reporter virus; [2]
  EC50: 3.67 nM
pLai RLuc reporter virus; [3]
  EC50: 0.316 nM
[1]
  CC50 at 5 days: 13700 nM
HIV-1 (IIIB)
  EC50: 2.05 nM
